Measured values reported in patent publication US6737383B1, “Herbicidal oxadiazolidines” (priority 1999, dated 2004).

Assays:
surinam grass = assay: Test B pre/postemergence surinam grass; format: in vivo, Brachiaria decumbens
Summary of the method: (§1)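 Test chemicals in a non-phytotoxic solvent mixture with surfactant were sprayed preemergence onto planted seeds and postemergence onto plants 2 to 18 cm tall (1- to 4-leaf stage). After twelve to sixteen days in a greenhouse, injury was visually rated against untreated controls from 0 (no effect) to 10 (complete control).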

cocklebur = assay: Test B pre/postemergence cocklebur; format: in vivo, Xanthium strumarium
Summary of the method: as §1

corn = assay: Test B pre/postemergence corn; format: in vivo, Zea mays
Summary of the method: as §1

crabgrass = assay: Test B pre/postemergence crabgrass; format: in vivo, Digitaria sanguinalis
Summary of the method: as §1

giant foxtail = assay: Test B pre/postemergence giant foxtail; format: in vivo, Setaria faberii
Summary of the method: as §1

morningglory = assay: Test B pre/postemergence morningglory; format: in vivo, Ipomoea hederacea
Summary of the method: as §1

pigweed = assay: Test B pre/postemergence pigweed; format: in vivo, Amaranthus retroflexus
Summary of the method: as §1

rape = assay: Test B pre/postemergence rape; format: in vivo, Brassica napus
Summary of the method: as §1

sugar beet = assay: Test B pre/postemergence sugar beet; format: in vivo, Beta vulgaris
Summary of the method: as §1

wheat = assay: Test B pre/postemergence wheat; format: in vivo, Triticum aestivum
Summary of the method: as §1

wild oat = assay: Test B pre/postemergence wild oat; format: in vivo, Avena fatua
Summary of the method: as §1

purple nutsedge = assay: Test B pre/postemergence purple nutsedge; format: in vivo, Cyperus rotundus
Summary of the method: as §1

rice = assay: Test B flood test rice; format: in vivo, Oryza sativa
Summary of the method: (§2)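 Plants were grown to the 2-leaf stage before treatment with test chemical, then held in a greenhouse for twelve to sixteen days. Injury was visually rated against untreated controls on a 0–10 scale, where 0 is no effect and 10 is complete control.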

smallflower flatsedge = assay: Test B flood test smallflower flatsedge; format: in vivo, Cyperus difformis
Summary of the method: as §2

duck salad = assay: Test B flood test duck salad; format: in vivo, Heteranthera limosa
Summary of the method: as §2

bamyardgrass = assay: Test B flood test barnyardgrass; format: in vivo, Echinochloa crus-galli
Summary of the method: as §2

[1] = Postemergence, Rate 62 g/ha, scale 0 to 10, 0 is no effect, 10 is complete control
[2] = Postemergence, Rate 250 g/ha, scale 0 to 10, 0 no effect, 10 complete control
[3] = Preemergence, Rate 62 g/ha, scale 0 to 10, 0 is no effect, 10 is complete control
[4] = Preemergence, Rate 125 g/ha, scale 0 to 10 (0 no effect, 10 complete control)
[5] = Preemergence, Rate 250 g/ha, scale of 0 to 10 where 0 is no effect and 10 is complete control
[6] = Preemergence, Rate 500 g/ha, scale 0 (no effect) to 10 (complete control)
[7] = Rate 125 g/ha, Postemergence, scale 0 to 10, 0 no effect, 10 complete control
[8] = Rate 500 g/ha, Postemergence, scale 0 to 10, 0 no effect, 10 complete control
[9] = Rate 125 g/ha, Postemergence section (flood test species), scale 0 to 10, 0 no effect, 10 complete control
[10] = Rate 500 g/ha, listed under Postemergence (flood test species), scale 0 to 10, 0 no effect, 10 complete control
[11] = flood test, listed under Postemergence, Rate 250 g/ha, scale 0 to 10, 0 no effect, 10 complete control

Question: With Cc1ccccc1-n1c(=O)on(C(=O)N(c2ccc(F)c(F)c2)C(C)C)c1=O [Compound 48] as the molecule, how does the “B. signalgrass plant response rating” value (surinam grass; [1]) read?
Answer: 0

Question: And the “B. signalgrass plant response rating” value (surinam grass; [2])?
Answer: 0

Question: What about the “Plant response rating, B. signalgrass” value (surinam grass; [3]) of the same molecule?
Answer: 0

Question: What about the “Plant response rating, B. signalgrass” value (surinam grass; [4]) of the same molecule?
Answer: 0

Question: What about the “Plant response rating, B. signalgrass” value (surinam grass; [5]) of the same molecule?
Answer: 0

Question: What about the “B. signalgrass plant response rating” value (surinam grass; [6]) of the same molecule?
Answer: 0

Question: What about the “B. signalgrass plant response rating” value (surinam grass; [7]) of the same molecule?
Answer: 0

Question: What about the “B. signalgrass plant response rating” value (surinam grass; Rate 500 g/ha, Postemergence, scale of 0 to 10 where 0 is no effect and 10 is complete control) of the same molecule?
Answer: 0

Question: And the “Cocklebur plant response rating” value (cocklebur; [1])?
Answer: 0

Question: What about the “Cocklebur plant response rating” value (cocklebur; [2]) of the same molecule?
Answer: 0

Question: And the “Plant response rating, Cocklebur” value (cocklebur; [3])?
Answer: 0

Question: What about the “Plant response rating, Cocklebur” value (cocklebur; [4]) of the same molecule?
Answer: 0

Question: What about the “Plant response rating, Cocklebur” value (cocklebur; [5]) of the same molecule?
Answer: 0

Question: And the “Cocklebur plant response rating” value (cocklebur; [6])?
Answer: 0

Question: And the “Cocklebur plant response rating” value (cocklebur; [7])?
Answer: 0

Question: What about the “Cocklebur plant response rating” value (cocklebur; [8]) of the same molecule?
Answer: 2

Question: And the “Corn plant response rating” value (corn; [1])?
Answer: 0

Question: What about the “Corn plant response rating” value (corn; [2]) of the same molecule?
Answer: 0

Question: What about the “Plant response rating, Corn” value (corn; [3]) of the same molecule?
Answer: 0

Question: And the “Plant response rating, Corn” value (corn; [4])?
Answer: 0

Question: And the “Plant response rating, Corn” value (corn; [5])?
Answer: 0

Question: And the “Corn plant response rating” value (corn; [6])?
Answer: 0

Question: And the “Corn plant response rating” value (corn; [7])?
Answer: 0

Question: And the “Corn plant response rating” value (corn; [8])?
Answer: 0

Question: What about the “Crabgrass plant response rating” value (crabgrass; [1]) of the same molecule?
Answer: 0

Question: And the “Crabgrass plant response rating” value (crabgrass; [2])?
Answer: 3

Question: What about the “Plant response rating, Crabgrass” value (crabgrass; [3]) of the same molecule?
Answer: 1

Question: What about the “Plant response rating, Crabgrass” value (crabgrass; [4]) of the same molecule?
Answer: 6

Question: What about the “Plant response rating, Crabgrass” value (crabgrass; [5]) of the same molecule?
Answer: 7

Question: What about the “Crabgrass plant response rating” value (crabgrass; [6]) of the same molecule?
Answer: 7

Question: What about the “Crabgrass plant response rating” value (crabgrass; [7]) of the same molecule?
Answer: 1

Question: And the “Crabgrass plant response rating” value (crabgrass; [8])?
Answer: 8

Question: And the “Giant foxtail plant response rating” value (giant foxtail; [1])?
Answer: 0

Question: And the “Giant foxtail plant response rating” value (giant foxtail; [2])?
Answer: 2

Question: What about the “Plant response rating, Giant foxtail” value (giant foxtail; [3]) of the same molecule?
Answer: 6

Question: And the “Plant response rating, Giant foxtail” value (giant foxtail; [4])?
Answer: 9

Question: And the “Plant response rating, Giant foxtail” value (giant foxtail; [5])?
Answer: 10

Question: And the “Giant foxtail plant response rating” value (giant foxtail; [6])?
Answer: 10

Question: What about the “Giant foxtail plant response rating” value (giant foxtail; [7]) of the same molecule?
Answer: 0

Question: And the “Giant foxtail plant response rating” value (giant foxtail; [8])?
Answer: 3

Question: What about the “Morningglory plant response rating” value (morningglory; [1]) of the same molecule?
Answer: 0

Question: What about the “Morningglory plant response rating” value (morningglory; [2]) of the same molecule?
Answer: 0

Question: And the “Plant response rating, Morningglory” value (morningglory; [3])?
Answer: 0

Question: What about the “Plant response rating, Morningglory” value (morningglory; [4]) of the same molecule?
Answer: 0

Question: What about the “Plant response rating, Morningglory” value (morningglory; [5]) of the same molecule?
Answer: 0

Question: What about the “Morningglory plant response rating” value (morningglory; [6]) of the same molecule?
Answer: 0

Question: What about the “Morningglory plant response rating” value (morningglory; [7]) of the same molecule?
Answer: 0

Question: What about the “Morningglory plant response rating” value (morningglory; [8]) of the same molecule?
Answer: 1

Question: What about the “Redroot pigweed plant response rating” value (pigweed; [1]) of the same molecule?
Answer: 0

Question: And the “Redroot pigweed plant response rating” value (pigweed; [2])?
Answer: 0

Question: And the “Plant response rating, Redroot pigweed” value (pigweed; [3])?
Answer: 0

Question: And the “Plant response rating, Redroot pigweed” value (pigweed; [4])?
Answer: 0

Question: What about the “Plant response rating, Redroot pigweed” value (pigweed; [5]) of the same molecule?
Answer: 0

Question: What about the “Redroot pigweed plant response rating” value (pigweed; [6]) of the same molecule?
Answer: 0

Question: What about the “Redroot pigweed plant response rating” value (pigweed; [7]) of the same molecule?
Answer: 0

Question: And the “Redroot pigweed plant response rating” value (pigweed; [8])?
Answer: 0

Question: And the “Rape plant response rating” value (rape; [1])?
Answer: 0

Question: And the “Rape plant response rating” value (rape; [2])?
Answer: 0

Question: And the “Plant response rating, Rape” value (rape; [3])?
Answer: 0

Question: What about the “Plant response rating, Rape” value (rape; [4]) of the same molecule?
Answer: 0

Question: And the “Plant response rating, Rape” value (rape; [5])?
Answer: 0

Question: What about the “Rape plant response rating” value (rape; [6]) of the same molecule?
Answer: 0

Question: What about the “Rape plant response rating” value (rape; [7]) of the same molecule?
Answer: 0

Question: What about the “Rape plant response rating” value (rape; [8]) of the same molecule?
Answer: 0

Question: What about the “Sugarbeets plant response rating” value (sugar beet; [1]) of the same molecule?
Answer: 0

Question: What about the “Sugarbeets plant response rating” value (sugar beet; [2]) of the same molecule?
Answer: 0

Question: And the “Plant response rating, Sugarbeets” value (sugar beet; [3])?
Answer: 0

Question: And the “Plant response rating, Sugarbeets” value (sugar beet; [4])?
Answer: 0

Question: What about the “Plant response rating, Sugarbeets” value (sugar beet; [5]) of the same molecule?
Answer: 0

Question: What about the “Sugarbeets plant response rating” value (sugar beet; [6]) of the same molecule?
Answer: 0

Question: And the “Sugarbeets plant response rating” value (sugar beet; [7])?
Answer: 0

Question: And the “Sugarbeets plant response rating” value (sugar beet; [8])?
Answer: 0

Question: What about the “Wheat plant response rating” value (wheat; [1]) of the same molecule?
Answer: 0

Question: What about the “Wheat plant response rating” value (wheat; [2]) of the same molecule?
Answer: 0

Question: And the “Plant response rating, Wheat” value (wheat; [3])?
Answer: 0

Question: And the “Plant response rating, Wheat” value (wheat; [4])?
Answer: 0

Question: What about the “Plant response rating, Wheat” value (wheat; [5]) of the same molecule?
Answer: 0

Question: What about the “Wheat plant response rating” value (wheat; [6]) of the same molecule?
Answer: 0

Question: And the “Wheat plant response rating” value (wheat; [7])?
Answer: 0

Question: What about the “Wheat plant response rating” value (wheat; [8]) of the same molecule?
Answer: 0

Question: And the “Wild oats plant response rating” value (wild oat; [1])?
Answer: 0

Question: What about the “Wild oats plant response rating” value (wild oat; [2]) of the same molecule?
Answer: 0

Question: What about the “Plant response rating, Wild oats” value (wild oat; [4]) of the same molecule?
Answer: 0

Question: What about the “Plant response rating, Wild oats” value (wild oat; [5]) of the same molecule?
Answer: 2

Question: And the “Wild oats plant response rating” value (wild oat; [6])?
Answer: 2

Question: What about the “Wild oats plant response rating” value (wild oat; [7]) of the same molecule?
Answer: 0

Question: And the “Wild oats plant response rating” value (wild oat; [8])?
Answer: 0

Question: And the “Nutsedge plant response rating” value (purple nutsedge; [1])?
Answer: 0

Question: And the “Nutsedge plant response rating” value (purple nutsedge; [2])?
Answer: 0

Question: What about the “Plant response rating, Nutsedge” value (purple nutsedge; [3]) of the same molecule?
Answer: 0

Question: And the “Plant response rating, Nutsedge” value (purple nutsedge; [4])?
Answer: 0

Question: And the “Plant response rating, Nutsedge” value (purple nutsedge; [5])?
Answer: 0

Question: And the “Nutsedge plant response rating” value (purple nutsedge; [6])?
Answer: 0

Question: And the “Nutsedge plant response rating” value (purple nutsedge; [7])?
Answer: 0

Question: What about the “Nutsedge plant response rating” value (purple nutsedge; [8]) of the same molecule?
Answer: 0

Question: And the “Rice plant response rating” value (rice; [1])?
Answer: 0

Question: What about the “Rice plant response rating” value (rice; [9]) of the same molecule?
Answer: 0

Question: And the “Rice plant response rating” value (rice; [10])?
Answer: 0

Question: What about the “Rice plant response rating” value (rice; [11]) of the same molecule?
Answer: 0

Question: What about the “S. Flatsedge plant response rating” value (smallflower flatsedge; [1]) of the same molecule?
Answer: 0

Question: What about the “S. Flatsedge plant response rating” value (smallflower flatsedge; [9]) of the same molecule?
Answer: 0

Question: What about the “S. Flatsedge plant response rating” value (smallflower flatsedge; [10]) of the same molecule?
Answer: 0

Question: And the “S. Flatsedge plant response rating” value (smallflower flatsedge; [11])?
Answer: 0

Question: What about the “Ducksalad plant response rating” value (duck salad; [1]) of the same molecule?
Answer: 0

Question: What about the “Ducksalad plant response rating” value (duck salad; [10]) of the same molecule?
Answer: 0

Question: And the “Ducksalad plant response rating” value (duck salad; [11])?
Answer: 0

Question: And the “Barnyardgrass plant response rating” value (bamyardgrass; [1])?
Answer: 0

Question: What about the “Barnyardgrass plant response rating” value (bamyardgrass; [9]) of the same molecule?
Answer: 0

Question: And the “Barnyardgrass plant response rating” value (bamyardgrass; [10])?
Answer: 0

Question: And the “Barnyardgrass plant response rating” value (bamyardgrass; [11])?
Answer: 0
